What was measured:
[1] = Sensory testing: paired choice of greater umami taste; assay type: in vivo, human; conditions: 16 mM MSG solution vs 4 ppm S807 solution, 32 selections; for number of selections favoring the solution as having greater umami taste: 16 panelists, 2 reps
From the text: Of the 32 selections, 19 favored the MSG solution and 13 favored the S807 solution.

T1R1/T1R3 = biological target: T1, T1R1/T1R3 (Homo sapiens, UniProt Q7RTX1); experiment: T1R1/T1R3 assay (cells expressing hT1R1 in the presence of hT1R3); assay type: cell-based
T1 construct: expressed in transfected cells
T1 sequence (Q7RTX1 21-841): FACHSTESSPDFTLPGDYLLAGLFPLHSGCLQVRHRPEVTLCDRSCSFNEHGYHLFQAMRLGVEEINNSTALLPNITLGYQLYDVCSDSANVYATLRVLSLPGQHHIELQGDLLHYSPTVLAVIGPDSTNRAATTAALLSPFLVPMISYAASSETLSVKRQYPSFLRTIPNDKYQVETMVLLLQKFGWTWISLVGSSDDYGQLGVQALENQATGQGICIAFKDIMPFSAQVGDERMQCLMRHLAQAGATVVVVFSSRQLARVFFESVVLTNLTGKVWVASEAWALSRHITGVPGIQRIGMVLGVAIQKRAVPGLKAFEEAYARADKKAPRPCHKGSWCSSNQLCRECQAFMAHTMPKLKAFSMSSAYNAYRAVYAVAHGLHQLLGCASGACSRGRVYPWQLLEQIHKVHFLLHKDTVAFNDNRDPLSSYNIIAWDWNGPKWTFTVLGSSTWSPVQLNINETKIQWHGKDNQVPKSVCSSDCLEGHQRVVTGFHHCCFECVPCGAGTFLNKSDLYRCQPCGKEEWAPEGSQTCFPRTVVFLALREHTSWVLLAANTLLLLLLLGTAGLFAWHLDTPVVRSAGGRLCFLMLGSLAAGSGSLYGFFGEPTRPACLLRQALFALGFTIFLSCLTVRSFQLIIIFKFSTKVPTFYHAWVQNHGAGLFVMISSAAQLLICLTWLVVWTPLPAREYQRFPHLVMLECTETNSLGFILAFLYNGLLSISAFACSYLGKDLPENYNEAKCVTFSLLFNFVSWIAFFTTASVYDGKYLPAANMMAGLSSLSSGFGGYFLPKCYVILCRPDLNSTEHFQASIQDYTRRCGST
T1 sequence (Q7RTX0 21-852 C757R partner): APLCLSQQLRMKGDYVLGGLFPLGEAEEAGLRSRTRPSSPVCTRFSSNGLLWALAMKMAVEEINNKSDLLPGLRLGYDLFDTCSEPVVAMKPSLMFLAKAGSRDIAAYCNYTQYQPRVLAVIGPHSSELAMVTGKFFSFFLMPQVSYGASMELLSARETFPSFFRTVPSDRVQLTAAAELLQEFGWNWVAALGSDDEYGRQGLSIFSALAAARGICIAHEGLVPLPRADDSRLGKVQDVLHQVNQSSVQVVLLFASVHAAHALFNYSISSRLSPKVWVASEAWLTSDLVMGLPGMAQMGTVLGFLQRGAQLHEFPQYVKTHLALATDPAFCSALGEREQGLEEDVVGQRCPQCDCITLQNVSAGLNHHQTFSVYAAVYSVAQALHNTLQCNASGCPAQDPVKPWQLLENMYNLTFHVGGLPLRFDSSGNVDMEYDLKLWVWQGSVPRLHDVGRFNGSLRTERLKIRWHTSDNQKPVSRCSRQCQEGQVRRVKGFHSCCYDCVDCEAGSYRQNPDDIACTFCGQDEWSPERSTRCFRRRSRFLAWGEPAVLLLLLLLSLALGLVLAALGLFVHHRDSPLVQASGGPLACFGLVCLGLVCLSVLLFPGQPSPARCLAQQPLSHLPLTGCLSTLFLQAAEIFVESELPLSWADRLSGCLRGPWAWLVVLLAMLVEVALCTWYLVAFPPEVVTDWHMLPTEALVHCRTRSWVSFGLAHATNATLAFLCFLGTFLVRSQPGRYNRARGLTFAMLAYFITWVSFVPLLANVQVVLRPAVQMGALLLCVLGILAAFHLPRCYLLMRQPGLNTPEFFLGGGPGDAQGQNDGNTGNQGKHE
From the text: To implement the identification of hT1R1-TMD modulators, cells transiently or stably expressing hT1R1 (T1R1) in the presence of hT1R3 (T1R3) are stimulated with library compounds. Similarly, the same compounds are screened in a GTPγS binding assay utilizing membranes expressing transmembrane domain (TMD) of hT1R1 as described in Zhang et al., Proc. Nat'l Acad. Sci., vol. 105, pp. 20930-20934 (2008). Compounds active exclusively active in the two assays are then prioritized and evaluated in sensory for the detection of an umami note on their own and synergy in the presence of MSG or MSG+IMP.
The compound N-(heptan-4-yl)-benzo[d][1,3]dioxole-5-carboxamide (S807) was used as a test compound in a T1R1/T1R3 assay, both alone and in the presence of monosodium glutamate (MSG).
In a similar way, the T1R1/T1R3 assay was used to measure the activity of monosodium glutamate (MSG), inosine 5′monophosphate (IMP), S807, MSG+IMP, 5807+MSG, 5807+IMP, and 5807+MSG+IMP.

Compound | number of selections favoring the solution as having greater umami taste [1] | preference for MSG versus S807 (umami taste) [1] | agonist activity on T1R1/T1R3 (T1R1/T1R3; S807 alone, FIG. 2) | enhancement of the MSG effect on T1R1/T1R3 (T1R1/T1R3; in the presence of MSG, FIG. 2) | effect in combination with MSG (percent activity, FIG. 3) (T1R1/T1R3; with MSG) | effect in combination with MSG and IMP (percent activity, FIG. 3) (T1R1/T1R3; with the combination of MSG and IMP)
CCCC(CCC)NC(=O)c1ccc2c(c1)OCO2 [S807, N-(heptan-4-yl)-benzo[d][1,3]dioxole-5-carboxamide] | 13 | no statistically significant preference | agonist activity | enhancement properties on the MSG effect | synergistic effect | synergistic effect
N[C@@H](CCC(=O)O)C(=O)[O-].[Na+] [MSG, monosodium glutamate, reference compound] | 19 | – | – | – | – | –
